In ChEMBL document CHEMBL2331113, “Synthesis of cyclic pyranopterin monophosphate, a biosynthetic intermediate in the molybdenum cofactor pathway” (J Med Chem, 2013):

Assays:
[1] = Half life of aerial oxidation of the compound at pH 3; type: physicochemical
[2] = Prodrug conversion in Tris/HCl buffer assessed as Escherichia coli MPT synthase-mediated 2-amino-6-(3,4-dihydroxybut-1-ynyl)pteridin-4(3H)-one formation after 30 mins by HPLC analysis; type: ADME; conditions: 0.5 h
[3] = Prodrug conversion in HEPES buffer assessed as Escherichia coli MPT synthase-mediated 2-amino-6-(3,4-dihydroxybut-1-ynyl)pteridin-4(3H)-one formation measured as activation of human apo-sulfite oxidase incubated for 30 mins prior to apo-sulfite oxidase addition measured after 30 mins by spectrophotometric analysis in presence of gephyrin; conditions: 0.5 h

Nc1nc2c(c(=O)[nH]1)N[C@@H]1[C@H](N2)O[C@@H]2COP(=O)(O)O[C@@H]2C1(O)O [FOSDENOPTERIN]
half-life [1]: 10.6 h | Drug metabolism [2]: Active | Drug metabolism [3]: Active

Br.Nc1nc2c(c(=O)[nH]1)N[C@@H]1[C@H](N2)O[C@@H]2COP(=O)(O)O[C@@H]2C1(O)O
Drug metabolism [2]: Dose-dependent effect | Drug metabolism [3]: Dose-dependent effect
